Tests used:
[1] = biological target: T1, human GPR119 (Homo sapiens, UniProt Q8TDV5); experiment: Intracellular cAMP increase in human GPR119 introduced cells (HitHunter cAMP XS+ Assay); format: cell-based; conditions: for EC50: hGPR119 stable cells, intracellular cAMP; for GPR119 agonist effect (in words): hGPR119 introduced cells, cAMP
T1 construct: expressed in transfected cells
T1 sequence (Q8TDV5 1-335): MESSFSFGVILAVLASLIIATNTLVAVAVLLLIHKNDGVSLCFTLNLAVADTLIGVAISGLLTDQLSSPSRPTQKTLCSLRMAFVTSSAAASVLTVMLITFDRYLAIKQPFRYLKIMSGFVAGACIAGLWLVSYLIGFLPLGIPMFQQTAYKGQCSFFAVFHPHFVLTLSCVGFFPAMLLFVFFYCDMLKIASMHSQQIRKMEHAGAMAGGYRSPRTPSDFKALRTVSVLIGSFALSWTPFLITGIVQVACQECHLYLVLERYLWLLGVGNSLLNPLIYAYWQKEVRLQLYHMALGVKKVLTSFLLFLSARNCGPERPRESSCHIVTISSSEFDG
Source text: The GPR119 agonist effect was studied by measuring the effect of an analyte on increase of intracellular amount of cAMP in human GPR119 introduced cells. The testing method is described below.
(1) Construction of the Stable Cell Line Expressing Human G Protein-Coupled-Receptor 119 (hGPR119) Human GPR119 gene (NM 178471) is purchased from American Type Culture Collection (ATCC No. 10807349). Hind III site-added forward side primer ([…]: sequence No. 1) and Apa I site-added reverse side primer ([…]: sequence No. 2) are designed. The target gene is amplyfied by a polymerase chain reaction (PCR) method using KOD-Plus-Ver. 2 (TOYOBO #KOD-211). PCR is conducted by repeating three steps consisting of the step of 98° C.-10 seconds, the step of 55° C.-30 seconds, and the step of 68° C.-1 minute and 10 seconds in 35 cycles. The amplified PCR product is inserted into pcDNA5/FRT/TO (Invitrogen #V6520-20) plasmid. Cells, which can constantly express the target gene with tetracycline, are constructed using Flp-In T-REx-systen (invitorogen).
(2) Measurement of Intracellular Cyclic Adenosine Monophosphate (cAMP)
The hGPR119 introduced cells prepared in (1) are plated on a 96-well plate using Dulbecco's Modified Eagle Medium containing heat-inactived 10% fetal bovine serum. After incubation of 24 hours, tetracyclin (invitrogen #Q10019) is added to the culture medium to induce hGPR119 gene expression. After further incubation of 24 hours, the cells are stimulated with 0.5 mM 3-ISOBUTYL-1-METHYLXANTHINE (Sigma #17018) phosphate buffer containing the analyte at 37° C. for 30 minutes. The amount of the intracellular cAMP is measured by using FLUOstar Optima (BMG LABTECH) according to the protocol of HitHunter™ cAMP XS+Assay (GE Healthcare #90007503) to give the agonist activity of the analyte to the GPR119 receptor.
(1) Construction of the Stable Cell Line Expressing Human G-Protein Coupled Receptor 119 (hGPR119) hGPR119 gene (NM 178471) was purchased from American Type Culture Collection (ATCC No. 10807349). The forward primer that was added a HindIII site ([…] (sequence number 1)), and the reverse primer that was added an ApaI site ([…] (sequence number 2)) were designed, the target gene was amplified by polymerase chain reaction (PCR) using a KOD-Plus-Ver.2 (TOYOBO #KOD-211). PCR was repeated 3 steps (98° C. for 10 sec, 55° C. for 30 sec, 68° C. for 1 min 15 sec) by 35 cycles. Amplified PCR product was inserted in pcDNA5/FRT/TO (Invitrogen #V6520-20), and the stable cell line that expresses target gene when induced with tetracycline was created using the Flp-In T-Rex system (Invitrogen).
(2) Measuring Method of Intracellular Cyclic Adenosine Monophosphate (cAMP) hGPR119 stable cells made by above-mentioned (1) were plated on 96 well plates in Dulbecco's Modified Eagle Medium containing 10% heat-inactivated FBS. After 24 hours, the hGPR119 expression was induced by adding medium containing tetracycline (Invitrogen #Q10019) and incubating for another 24 hours. Following incubation, cells were stimulated by 0.5 mM 3-ISOBUTYL-1-METHYLXANTHINE (Sigma #17018) phosphate buffered saline containing test compound for 30 minutes at 37° C. Agonist activity of test compound to the GPR119 receptor was estimated by measuring the intracellular cAMP concentration using a Fluostar optima plate reader (BMG LABTECH) according to the manufacturer's protocol of the HitHunter™ cAMP XS+Assay (GE Healthcare #90007503).
The examination was performed by the method similar to Example 86 (Pharmacological experiment 1)-(1), -(2).

[2] = test system: normal mice; experiment: Oral glucose tolerance test in normal mice; format: in vivo
Description: Oral glucose tolerance is tested in normal mice.
In this experiment, the inhibitory effect of an analyte on glycemic excursions is examined after glucose administration in normal mice. The test methods are described below.
Male 9-week-old ICR mice, habituated to the experimental environment for two weeks, are fasted for 18 hours and used to this experiment. Mice are orally administered the analyte or vehicle (polyethylene glycol 400:ethanol:Tween 80=8:1:1). After 30 minutes, they were orally given glucose at the dose of 3 g/kg.
Blood was collected at just before the analyte or vehicle administration (−30 minutes), immediately before glucose challenge (0 minute), 20 minutes, 40 minutes, 60 minutes, and 120 minutes after glucose ingestion to determine blood glucose levels.
Inhibition rate (%) of the analyte versus vehicle in areas under the glycemic excursion curve between 0 and 120 min after glucose challenge is determined.
Oral Glucose Tolerance Test in Normal Mice […]
Blood was collected at just before the test compound or vehicle administration (−30 min), immediately before glucose challenge (0 min), 20 min, 40 min, 60 min and 120 min after glucose ingestion and then blood glucose levels were determined.
Inhibition rate (%) of the test compound versus vehicle in areas under the glycemic excursion curve between 0 and 120 min after glucose challenge was determined.

[3] = Table 17, method similar to Example 86
[4] = Table 16, tetracycline-induced, 30 minutes at 37° C.

Compound | melting point | EC50 [1, 3] | EC50 [1, 4] | GPR119 agonist effect (in words) [1] | Inhibition rate (%) ([2]; 10 mg/kg oral, male ICR mice, glucose 3 g/kg 30 min later, area under glycemic excursion curve 0-120 min versus vehicle) | inhibitory effect on glycemic excursions (in words) ([2]; oral glucose tolerance test of normal mice)
Cc1cc(C2CCN(C(=O)OC(C)(C)C)CC2)cnc1COc1ccc(S(C)(=O)=O)cc1 [Example 63, tert-Butyl 4-[2-(4-methanesulfonylphenoxymethyl)-3-methylpyridin-5-yl]piperidine-1-carboxylate] | 130 to 132 °C | 28.4 nM |  |  |  | 
CCC(C)(C)OC(=O)N1CCC(c2ccc(COc3ccc(S(C)(=O)=O)cc3)nc2)CC1 [Example 41, 1,1-Dimethylpropyl 4-[2-(4-methanesulfonylphenoxymethyl)pyridin-5-yl]piperidine-1-carboxylate] | 114 to 115 °C | 114 nM |  |  |  | 
CC(C)(C)OC(=O)N1CCC(c2ccc(COc3ccc(-n4cncn4)cc3)nc2)CC1 [Example 16, tert-Butyl 4-[2-[4-(1,2,4-triazol-1-yl)phenoxymethyl]pyridin-5-yl]piperidine-1-carboxylate] | 147 to 150 °C | 129 nM |  |  |  | 
CC(C)(C)OC(=O)N1CCC(c2ccc(COc3ccc(S(C)(=O)=O)cc3)cn2)CC1 [Example 2, tert-Butyl 4-[5-(4-methanesulfonylphenoxymethyl)pyridin-2-yl]piperidine-1-carboxylate] | 140 to 142 °C |  | 606 nM | excellent GPR119 agonist effect |  | 
CCc1cnc(N2CCC(c3ccc(COc4ccc(S(C)(=O)=O)cc4)nc3)CC2)nc1 [Example 48, 5-Ethyl-2-[4-[2-(4-methanesulfonylphenoxymethyl)pyridin-5-yl]piperidin-1-yl]pyrimidine] | 185 to 187 °C | 137 nM |  |  |  | 

Second part, led by results:

melting point | EC50 [1, 3] | EC50 [1, 4] | GPR119 agonist effect (in words) [1] | Compound | Inhibition rate (%) ([2]; 10 mg/kg oral, male ICR mice, glucose 3 g/kg 30 min later, area under glycemic excursion curve 0-120 min versus vehicle) | inhibitory effect on glycemic excursions (in words) ([2]; oral glucose tolerance test of normal mice)
 |  | 26.8 nM | excellent GPR119 agonist effect | CC(C)(C)OC(=O)N1CCC(c2ccc(COc3ccc(S(C)(=O)=O)cc3)nc2)CC1 [Example 1, tert-Butyl 4-[2-(4-methanesulfonylphenoxymethyl)pyridin-5-yl]piperidine-1-carboxylate] | 41.8% | strong inhibitory effect
143 to 145 °C | 65.9 nM |  |  | Cc1cc(C2CCN(C(=O)OC(C)(C)C)CC2)cnc1COc1ccc(S(C)(=O)=O)cc1Cl [Example 80, tert-Butyl 4-[2-(2-chloro-4-methanesulfonylphenoxymethyl)-3-methylpyridin-5-yl]piperidine-1-carboxylate] |  | 
143 to 145 °C | 137 nM |  |  | CC(C)c1nc(N2CCC(c3ccc(COc4ccc(S(C)(=O)=O)cc4)nc3)CC2)no1 [Example 8, 5-[1-(5-Isopropyl-1,2,4-oxadiazol-3-yl)piperidin-4-yl]-2-(4-methanesulfonylphenoxymethyl)pyridine] |  | 

Source: patent publication US20140018537A1, “GPR119 AGONIST” (NIPPON CHEMIPHAR CO., LTD., priority 2008, published 2014)
